The test system of assay [1] is spasm induced by 5-hydroxy-tryptamine. Kind of assay: Konzett test, inhibition of spasm induced by 5-hydroxy-tryptamine. Type of assay: in vivo, guinea-pigs. The following applies: guinea-pig Konzett test; for ED50: Cavia porcellus, read-out: ID50 spasm inhibition induced by 5-hydroxy-tryptamine. As for the experimental part: (§1) The activity was determined on the basis of inhibition of spasm induced by three endogenic spasmogenic agents (5-hydroxy-tryptamine histamine, acetyloholine).

Assay [2] concerns spasm induced by histamine. Kind of assay: Konzett test, inhibition of spasm induced by histamine. Type of assay: in vivo, guinea-pigs. The following applies: guinea-pig Konzett test; for ED50: Cavia porcellus, read-out: ID50 spasm inhibition induced by histamine. As for the experimental part:
as §1

The test system of assay [3] is spasm induced by acetylcholine. Kind of assay: Konzett test, inhibition of spasm induced by acetylcholine. In kind it is in vivo, guinea-pigs. The following applies: guinea-pig Konzett test; for ED50: Cavia porcellus, read-out: ID50 spasm inhibition induced by acetylcholine. As for the experimental part:
as §1

Assay [4] relates to spasm induced by three endogenic spasmogenic agents. Kind of assay: Konzett test, duration of activity and comparison with known compounds. In kind it is in vivo, guinea-pigs. The following applies: guinea-pig Konzett test; marks all three ID50 values. The procedure: The activity of the compounds of the invention was examined by Konzett test (Konzett H. and, Rossler R., Arch. Exp. Path. Pharm., 1940, 195 71) using guinea-pigs. The activity was determined on the basis of inhibition of spasm induced by three endogenic spasmogenic agents (5-hydroxy-tryptamine histamine, acetyloholine).

For another assay, the system named is human bronchus. The assay is described as follows: Human bronchus test, inhibition of Carbacol-induced contraction. The following applies: contraction by 1 μmole Carbacol, 37 C; for IC50: amount for 50% inhibition. From the text: As a further Example the activity of the compound of the formula IX is illustrated by human bronchus test. Human bronchus obtained surgically was dipped into an oxygenized physiological solution of 37 C. The contraction is induced by 1 μmole Carbacol.

For assay [5] the following is noted: Drugs of the Future 1981, 6, 362; cited from earlier work.

Broadly, the IC50 is the concentration that gives 50% inhibition.

Consider `O=c1c2c(nc3n1CCCCC3)CCCC2` [drawing 9], for which, in assay [1], the “ID50 spasm inhibition induced by 5-hydroxy-tryptamine” value is 3.0 µmol/kg. Further, the ED50 was found to be 3.1 µmol/kg in assay [2] and 7.8 µmol/kg in assay [3]. Besides, in assay [4], the “duration of activity (footnote x)” value is given as “long-lasting activity”.
Turning to `O=c1c2c(nc3n1CCCCC3)CCCC2` [IX], in the assay with human bronchus (Homo sapiens), inhibition was half-maximal at 5.4 µM (IC50). Also, the inhibition at 100 µM with human bronchus (Homo sapiens, dosage 10^-4 (10^-4.0) mole/1, read-out: spasm reduction) turned out to be 184%. Moreover, the inhibition at 31.62 µM in the assay with human bronchus (Homo sapiens, dosage 10^-4.5 mole/1, read-out: spasm reduction) is 113%. The inhibition at 10 µM in the assay with human bronchus (Homo sapiens, dosage 10^-5.0 mole/1, read-out: spasm reduction) came to 48%. For the same compound, the inhibition at 3.162 µM in the assay with human bronchus (Homo sapiens, dosage 10^-5.5 mole/1, read-out: spasm reduction) came to 23%. Further, the inhibition at 1 µM in the assay with human bronchus (Homo sapiens, dosage 10^-6.0 mole/1, read-out: spasm reduction) turned out to be 3%.
Take `O=c1c2c(nc3n1CCCCC3)CCCC2` [drawing 10]: the “ID50 spasm inhibition induced by 5-hydroxy-tryptamine” value in assay [1] came out at 15.7 µmol/kg. Moreover, the “ID50 spasm inhibition induced by histamine” value in assay [2] came to 5.4 µmol/kg. In addition, in assay [3], the “ID50 spasm inhibition induced by acetylcholine” value amounted to 6.3 µmol/kg.
As to `O=c1c2c(nc3n1CCCCC3)CCC2`, the ED50 in assay [1] stood at 13.8 µmol/kg; in assay [2] it was 6.5 µmol/kg; in assay [3], 3.7 µmol/kg.
Regarding `O=c1c2ccccc2nc2n1CCCCC2` [6,7,8,9,10,12-hexahydroazepino[2,1-b]quinazoline-12-one], in assay [5], the bronchodilatory activity result is listed as “displays bronchodilatory activity”.
For the compound “theophilline anisate [reference compound]”, in assay [1], the “ID50 spasm inhibition induced by 5-hydroxy-tryptamine” value was found to be 14.0 µmol/kg. In addition, in assay [2], the “ID50 spasm inhibition induced by histamine” value was determined as 14.0 µmol/kg. Further, the “ID50 spasm inhibition induced by acetylcholine” value in assay [3] amounted to 22.0 µmol/kg. In addition, in the assay with human bronchus, the midpoint of inhibition, the IC50, lay at 150 µM. In addition, the spasm reduction in the assay with human bronchus (dosage 10^-3.75 mole/1, 177.8 µM) is recorded as 64%; in the assay with human bronchus (dosage 10^-4 (10^-4.0) mole/1, 100 µM) it was 28%; in the assay on human bronchus (dosage 10^-4.25 mole/1, 56.23 µM), 10%; in the assay on human bronchus (dosage 10^-4.5 mole/1, 31.62 µM) it was 5%.
As to `O=c1c2ccccc2nc2n1CCCCC2` [drawing 12, reference compound], the figures for the ED50 in assay [1], in assay [2] and in assay [3] were 36 µmol/kg, 6.2 µmol/kg and 26.3 µmol/kg, respectively.

These data come from patent publication US4588526A, “Bronchodilatory azepino(1,2-A)pyrimidine derivatives and acid addition salts thereof and bronchodilating pharmaceutical compositions containing same” (Chinoin Gyogyszer es Vegyeszeti Termekek Gyara Rt, priority 1982, dated 1986).
